ChEMBL document CHEMBL4706610, “Hydroxypyridinone-Based Iron Chelators with Broad-Ranging Biological Activities” (J Med Chem, 2020)
Values after ≈ are worked out from the molar mass of the structure shown.

How the values were obtained:
[1] = Binding affinity to iron assessed as pFe3+
[2] = Binding affinity to iron assessed as pFe3+ at pH 7.4 by spectrophotometric method
Acetylcholinesterase [3] = target: T1, Acetylcholinesterase (Electrophorus electricus, UniProt O42275); assay: Inhibition of electric eel AChE using acetylthiocholine iodide as substrate preincubated for 15 mins followed by substrate addition and measured for 5 mins by Ellman's method
Pseudomonas aeruginosa = assay: Antibacterial activity against Pseudomonas aeruginosa incubated for 2 hrs followed by sterilized TSB addition and measured after 24 hrs by visual inspection; type: functional; conditions: time 26 hrs
[4] = Binding affinity to iron assessed as pFe3+ at pH 7.4
Rattus norvegicus [5] = assay: Iron scavenging activity in 59Fe-ferritin-loaded Wistar rat assessed as iron mobilization efficacy at 450 umol/kg, po dosed 1 hr after 59Fe-ferritin injection and measured 24 hrs after 59Fe-ferritin injection by gamma counting method relative to control; type: functional; conditions: dose 450 µmol/kg
[6] = tested on: Human immunodeficiency virus 1; assay: Antiviral activity against HIV1 BaL infected in human peripheral blood lymphocytes assessed as reduction in p24 production incubated for 5 days by ELISA; type: functional, organism-based; conditions: Human immunodeficiency virus 1, BaL, PBL, 120 h
[7] = Octanol/water partition coefficient, log P of the compound shaken for 45 mins and measured after 15 mins; type: physicochemical; conditions: time 60 min
[8] = Electrochemical behavior of the compound assessed as redox potential; type: physicochemical
[9] = target: T2, Amyloid-beta precursor protein (Homo sapiens, UniProt P05067); assay: Inhibition of self-induced amyloid beta (1 to 42) (unknown origin) aggregation measured after 24 hrs by ThT fluorescence assay relative to control; conditions: concentration not given here
[10] = Antioxidant activity assessed as DPPH radical scavenging activity incubated for 30 mins by UV-Vis spectrophotometric method; type: functional
[11] = Antioxidant activity assessed as DPPH radical scavenging activity incubated for 30 mins by absorbance method; type: functional
Acetylcholinesterase [12] = target: T1, Acetylcholinesterase; assay: Inhibition of electric eel AChE using acetylthiocholine iodide as substrate preincubated for 15 mins followed by substrate addition and measured for 5 mins by Ellman's reagent based UV-Vis spectrophotometric method
[13] = Binding affinity to Fe3+ assessed as pFe by UV-Vis spectrophotometric method
[14] = Antioxidant activity assessed as ABTS radical scavenging activity by trolox-equivalent antioxidant capacity assay; type: functional
[15] = target: T2, Amyloid-beta precursor protein; assay: Inhibition of self-induced amyloid beta (1 to 42) (unknown origin) aggregation by ThT fluorescence assay
[16] = target: T2, Amyloid-beta precursor protein; assay: Inhibition of self-induced amyloid beta (1 to 42) (unknown origin) aggregation by ThT fluorescence assay relative to control; conditions: concentration not given here
[17] = Binding affinity to iron assessed as pFe3+ at pH 7.45
Rattus norvegicus [18] = assay: Iron scavenging activity in 59Fe-ferritin-loaded rat assessed as iron mobilization efficacy at 450 umol/kg, po dosed 1 hr after 59Fe-ferritin injection and measured 24 hrs after 59Fe-ferritin injection by gamma counting method relative to control; type: functional; conditions: dose 450 µmol/kg; time 23 hrs

T2 sequence (P05067 whole entry): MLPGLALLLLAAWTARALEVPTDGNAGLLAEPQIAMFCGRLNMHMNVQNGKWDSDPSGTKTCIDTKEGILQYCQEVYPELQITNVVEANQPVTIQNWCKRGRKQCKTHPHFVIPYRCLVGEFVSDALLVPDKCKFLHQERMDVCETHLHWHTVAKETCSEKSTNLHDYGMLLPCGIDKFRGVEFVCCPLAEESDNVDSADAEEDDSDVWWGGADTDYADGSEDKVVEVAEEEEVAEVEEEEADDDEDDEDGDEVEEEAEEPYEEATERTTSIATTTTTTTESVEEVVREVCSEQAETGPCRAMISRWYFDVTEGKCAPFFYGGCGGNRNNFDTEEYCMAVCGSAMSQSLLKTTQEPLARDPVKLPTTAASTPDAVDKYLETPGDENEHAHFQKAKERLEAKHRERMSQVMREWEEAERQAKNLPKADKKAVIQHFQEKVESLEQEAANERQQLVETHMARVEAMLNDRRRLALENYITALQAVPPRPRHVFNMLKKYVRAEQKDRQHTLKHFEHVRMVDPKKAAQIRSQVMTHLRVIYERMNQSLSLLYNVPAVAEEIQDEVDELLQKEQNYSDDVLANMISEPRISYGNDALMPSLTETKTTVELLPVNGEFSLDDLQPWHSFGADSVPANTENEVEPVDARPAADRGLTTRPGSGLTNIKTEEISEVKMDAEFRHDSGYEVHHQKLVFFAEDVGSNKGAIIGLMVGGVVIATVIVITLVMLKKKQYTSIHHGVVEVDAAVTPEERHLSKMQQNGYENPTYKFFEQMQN
T1 sequence (O42275 whole entry): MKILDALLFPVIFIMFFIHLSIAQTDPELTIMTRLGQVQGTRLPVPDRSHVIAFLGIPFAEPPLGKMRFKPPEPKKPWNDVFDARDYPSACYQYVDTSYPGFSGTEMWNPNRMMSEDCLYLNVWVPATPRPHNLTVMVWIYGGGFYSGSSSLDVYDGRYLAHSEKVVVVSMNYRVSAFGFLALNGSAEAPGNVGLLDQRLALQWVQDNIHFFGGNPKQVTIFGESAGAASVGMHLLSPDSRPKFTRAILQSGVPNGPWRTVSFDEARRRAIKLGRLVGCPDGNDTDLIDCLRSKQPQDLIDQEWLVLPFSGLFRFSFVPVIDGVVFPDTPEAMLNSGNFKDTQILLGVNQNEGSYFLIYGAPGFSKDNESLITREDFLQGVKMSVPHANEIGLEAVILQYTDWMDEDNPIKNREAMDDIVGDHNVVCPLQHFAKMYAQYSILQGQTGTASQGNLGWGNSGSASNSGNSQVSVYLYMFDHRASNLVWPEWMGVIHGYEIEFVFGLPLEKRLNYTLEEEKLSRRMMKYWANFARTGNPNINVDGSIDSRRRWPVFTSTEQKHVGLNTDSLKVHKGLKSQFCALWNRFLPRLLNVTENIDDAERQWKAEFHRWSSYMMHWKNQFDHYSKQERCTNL

## O=c1cc(CO)[nH]cc1O
[1]
  Activity: 22

## Cc1c(O)c(=O)ccn1CCCC(=O)NCc1ccc(Cc2nc3ccccc3s2)cc1
[2]
  Activity: 19.4

## Cc1c(O)c(=O)ccn1CC(=O)NCCNc1c2c(nc3cc(Cl)ccc13)CCCC2
Acetylcholinesterase [3]
  IC50: 0.64 µM

## CCCCn1ccc(=O)c(O)c1C(=O)NCCCC(CCCNC(=O)c1c(O)c(=O)ccn1CCCC)(CCCNC(=O)c1c(O)c(=O)ccn1CCCC)NC(=O)CCC
Pseudomonas aeruginosa
  MIC: 32 µg/mL (≈ 37.6 µM)

## CNC(=O)c1c(O)c(=O)cc(C)n1C
[4]
  Activity: 21.7
Rattus norvegicus [5]
  Efficacy: 58.7%
[6]
  IC50: 33.3 µM

## Cc1c(O)c(=O)ccn1CC(=O)NCC(O)CNc1c2c(nc3cc(Cl)ccc13)CCCC2 (stereo not given)
Acetylcholinesterase [3]
  IC50: 0.64 µM

## CN(C)C(=O)c1cccc(O)c1O
[1]
  Activity: 15

## Cc1c(O)c(=O)ccn1CC(=O)NCCCNc1c2c(nc3ccccc13)CCCC2
Acetylcholinesterase [3]
  IC50: 0.64 µM

## Cc1c(O)c(=O)ccn1C [DEFERIPRONE]
[1]
  Activity: 20.4
[7]
  logP at 1 h: 0.17
Rattus norvegicus [5]
  Efficacy: 13.4%
[6]
  IC50: 102 µM
[8]
  Activity: -620 mV

## Cc1c(O)c(=O)ccn1CC(=O)NCCCNc1c2c(nc3cc(Cl)ccc13)CCCC2
[9]
  inhibition: 95.2%
Acetylcholinesterase [3]
  IC50: 0.86 µM
[10]
  EC50: 1110 µM

## Cc1c(OCc2ccccc2)c(=O)ccn1-c1ccc(CC(=O)NCc2ccc(-c3nc4ccccc4s3)cc2)cc1
[11]
  IC50: > 1000 µM
Acetylcholinesterase [12]
  IC50: 13.8 µM
[9]
  inhibition: 68.9%

## COCCn1ccc(=O)c(O)c1C(=O)NCCCC(CCCNC(=O)c1c(O)c(=O)ccn1CCOC)(CCCNC(=O)c1c(O)c(=O)ccn1CCOC)NC(=O)[C@@H](N)CC(C)C
Pseudomonas aeruginosa
  MIC: 128 µg/mL (≈ 142 µM)

## CCn1ccc(=O)c(O)c1C(=O)NCCCC(CCCNC(=O)c1c(O)c(=O)ccn1CC)(CCCNC(=O)c1c(O)c(=O)ccn1CC)NC(=O)[C@@H](N)CC(C)C
Pseudomonas aeruginosa
  MIC: 32 µg/mL (≈ 39.5 µM)

## Cc1c(O)c(=O)ccn1CC(=O)NCCCCNc1c2c(nc3cc(Cl)ccc13)CCCC2
Acetylcholinesterase [3]
  IC50: 0.64 µM

## Cc1cc(=O)c(O)c(CO)n1CCCn1cc(COc2ccc3ccc(=O)oc3c2)nn1
[13]
  Activity: 19.8

## CCCC(=O)NC(CCCNC(=O)c1c(O)c(=O)ccn1CC)(CCCNC(=O)c1c(O)c(=O)ccn1CC)CCCNC(=O)c1c(O)c(=O)ccn1CC
Pseudomonas aeruginosa
  MIC: 32 µg/mL (≈ 41.7 µM)

## O=c1cc(/C=C/c2nc3ccc(O)cc3s2)occ1O
[14]
  Activity: 6.03
[15]
  IC50: 5.06 µM
[16]
  inhibition: 78.3%

## CC(=O)N(O)CCCCCNC(=O)CCC(=O)N(O)CCCCCNC(=O)CCC(=O)N(O)CCCCCN [DEFEROXAMINE]
[1]
  Activity: 26.6
[8]
  Activity: -468 mV

## CCc1c(O)c(=O)ccn1CCCn1cc(COc2cc3ccccc3oc2=O)nn1
[13]
  Activity: 17.1

## Oc1cccc2cccnc12 [OXYQUINOLINE]
[8]
  Activity: -150 mV

## Cc1c(O)c(=O)ccn1CC(=O)NCC(O)CNc1c2c(nc3ccccc13)CCCC2 (stereo not given)
[1]
  Activity: 21.7
[9]
  inhibition: 86%
Acetylcholinesterase [3]
  IC50: 0.96 µM
[10]
  EC50: 399 µM

## CNC(=O)c1[nH]c(C)cc(=O)c1O
[4]
  Activity: 22.8
Rattus norvegicus [5]
  Efficacy: 50.1%
[6]
  IC50: 20 µM

## CC(=O)N(C)O
[1]
  Activity: 13

## CCC(O)c1c(O)c(=O)cc(C)n1C (stereo not given)
[17]
  Activity: 21
Rattus norvegicus [18]
  Efficacy: 60.4%

## O=c1cc(/C=C/c2nc3ccccc3o2)occ1O
[14]
  Activity: 4.29
[15]
  IC50: 7.05 µM
[16]
  inhibition: 65%

## CCCCn1ccc(=O)c(O)c1C(=O)NCCCC(CCCNC(=O)c1c(O)c(=O)ccn1CCCC)(CCCNC(=O)c1c(O)c(=O)ccn1CCCC)NC(=O)[C@@H](N)CC(C)C
Pseudomonas aeruginosa
  MIC: 32 µg/mL (≈ 35.7 µM)

## CCn1ccc(=O)c(O)c1C(C)O (stereo not given)
[17]
  Activity: 21.4
Rattus norvegicus [18]
  Efficacy: 54.5%

## Cc1c(O)c(=O)ccn1CCCC(=O)N1CCCC1c1nc2ccccc2s1 (stereo not given)
[2]
  Activity: 19.2
[11]
  IC50: 148 µM
Acetylcholinesterase [12]
  IC50: 14.7 µM
[9]
  inhibition: 59.3%

## CCCC(=O)NC(CCCNC(=O)c1c(O)c(=O)ccn1CCOC)(CCCNC(=O)c1c(O)c(=O)ccn1CCOC)CCCNC(=O)c1c(O)c(=O)ccn1CCOC
Pseudomonas aeruginosa
  MIC: 32 µg/mL (≈ 37.3 µM)

## CCCCCCn1ccc(=O)c(O)c1C(=O)NCCCC(CCCNC(=O)c1c(O)c(=O)ccn1CCCCCC)(CCCNC(=O)c1c(O)c(=O)ccn1CCCCCC)NC(=O)CCC
Pseudomonas aeruginosa
  MIC: 32 µg/mL (≈ 34.2 µM)
